We go through two compounds from patent publication US20230309565A1 (priority 2022, published 2023).

The conditions of data set [1]: methanol and chloroform.
Data set [2] is classed as physicochemical. The conditions noted are these: room temperature; 40-h culture of 0617-T307 in YME media.
In another data set the test system is CsPR1. The data set is classed as in vivo, citrus. The following applies: foliar spray 10 ppm and 20 ppm; midribs at 0d, 2d, 2w; relative to CsUbi.
Data set [3] relates to Candidatus Liberibacter asiaticus (CLas). Type of data set: in vivo, Duncan grapefruit.
The next data set concerns CsPR2. The data set is classed as in vivo, citrus. The conditions noted are these: foliar spray 10 ppm and 20 ppm; midribs at 0d, 2d, 2w; relative to CsUbi.
Data set [4] relates to Liberibacter crescens BT-1. As to the kind of experiment: microbe, parasite or virus in culture. Type of data set: cell-based. The conditions noted are these: for inhibition of growth of L. crescens BT1: BM7 medium, 28° C.

≈ marks a conversion by molar mass, not a printed value.

With `CSC1=C(C)C(=O)C(=O)NC1=O` [RejuAgro A], the solubility result in data set [1] was “can be dissolved in methanol and chloroform”. The “present and stable in the culture” value in data set [2] is “at least 4 weeks”. For the same compound, the “expression of CsPR1” value with CsPR1 is “triggered the expressions”. Besides, the “suppression of CLas” value in data set [3] (10 mg/L sprayed on leaves of citrus Huanglongbing positive trees) is “effectively suppress”. Moreover, the “CLas titer in citrus leaves” value in data set [3] (RAA 10 mg/L foliar spray, HLB-positive Duncan grapefruit, untreated control 7.4×10^5) is listed as 2.4×10^5 genome equivalent/g tissue DNA. Also, the “expression of CsPR2” value in the data set with CsPR2 is given as “triggered the expressions”. The “inhibition of growth of L. crescens” value is reported as “partial inhibition of growth” in data set [4] (1 mg/L) and “inhibition of growth” in data set [4] (2.5 mg/L, 16 days). In addition, the “inhibition of growth of L. crescens BT1” value in data set [4] (10 mg/L), in data set [4] (20 mg/L) and in data set [4] (40 mg/L) was “inhibition of growth” throughout. For the same compound, the MIC in data set [4] (Liberibacter crescens, BT1, read-out: minimal inhibitory concentration (MIC)) was found to be 2.5 µg/mL (≈ 13.5 µM).

Take `[H]/N=C(/N)N[C@H]1[C@H](O)[C@@H](O)[C@H](O[C@@H]2O[C@@H](C)[C@](O)(C=O)[C@H]2O[C@@H]2O[C@@H](CO)[C@H](O)[C@@H](O)[C@@H]2NC)[C@@H](N/C(N)=N\[H])[C@@H]1O` [streptomycin, reference compound]: the “inhibition of growth of L. crescens” value in data set [4] (2.5 mg/L, 16 days) is on record as “comparable”.
